Calls of active or inactive are those of the source. The rule behind the calls is not given here.
Legend:
SK-HEP1 [1] = experiment: Antitumor activity against human SK-HEP1 cells xenografted in BALB/c nude mouse at 10 mg/kg treated for 28 to 30 days under irradiation (3 Gy) (reference value: 38.4 %); type: functional; details: time 28-30 day
[2] = target: T1, Protein cereblon/NAD-dependent protein deacylase sirtuin-6 (Homo sapiens, UniProt Q8N6T7+Q96SW2); experiment: PROTAC activity at CRBN/SIRT6 in human SK-HEP1 cells assessed as hook effect upto 5 uM incubated for 36 hrs by Western blot analysis; type: cell-based
Target sequence in this assay (Q8N6T7 2-355 limits assumed): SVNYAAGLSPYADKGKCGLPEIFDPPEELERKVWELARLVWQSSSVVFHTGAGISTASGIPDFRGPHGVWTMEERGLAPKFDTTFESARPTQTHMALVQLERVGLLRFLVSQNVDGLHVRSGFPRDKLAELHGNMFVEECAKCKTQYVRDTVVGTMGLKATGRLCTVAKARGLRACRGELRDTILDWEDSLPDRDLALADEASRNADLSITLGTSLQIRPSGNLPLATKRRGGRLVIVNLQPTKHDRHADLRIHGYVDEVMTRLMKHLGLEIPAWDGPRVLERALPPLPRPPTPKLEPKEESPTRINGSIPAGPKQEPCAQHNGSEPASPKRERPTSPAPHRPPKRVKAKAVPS
Target sequence in this assay (Q96SW2 whole entry partner): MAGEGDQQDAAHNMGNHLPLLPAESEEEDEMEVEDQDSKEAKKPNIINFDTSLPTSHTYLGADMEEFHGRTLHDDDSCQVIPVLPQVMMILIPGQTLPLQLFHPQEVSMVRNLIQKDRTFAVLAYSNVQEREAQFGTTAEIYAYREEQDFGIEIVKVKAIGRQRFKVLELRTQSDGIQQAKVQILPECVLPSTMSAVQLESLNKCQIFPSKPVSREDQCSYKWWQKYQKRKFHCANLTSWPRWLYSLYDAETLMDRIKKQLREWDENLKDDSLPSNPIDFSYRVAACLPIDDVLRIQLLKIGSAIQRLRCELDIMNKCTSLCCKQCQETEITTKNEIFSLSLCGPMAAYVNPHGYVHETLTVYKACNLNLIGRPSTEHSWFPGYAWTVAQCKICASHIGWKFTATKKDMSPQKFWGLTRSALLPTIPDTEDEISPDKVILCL

SK-HEP1 [3] = experiment: Cytotoxicity against human SK-HEP1 cells combined with irradiation (3 Gy) incubated for 72 hrs by CCK8 assay; type: functional, cell-based; details: SK-HEP1, light or radiation study
SK-HEP1 [4] = experiment: Effect of genes related to mitochondrial matrix in human SK-HEP1 cells at 2.5 uM incubated for 36 hrs by GSEA analysis; type: functional, cell-based
SK-HEP1 [5] = experiment: Downregulation of TEDC1 expression in human SK-HEP1 cells at 2.5 uM incubated for 36 hrs; type: functional, cell-based
SK-HEP1 [6] = experiment: Effect of SAP18 mRNA expression in human SK-HEP1 cells at 2.5 uM incubated for 36 hrs by RNA sequencing analysis; type: functional, cell-based
[7] = target: T1, Protein cereblon/NAD-dependent protein deacylase sirtuin-6; experiment: PROTAC activity at CRBN/SIRT6 in MG132-treated human SK-HEP1 cells assessed as induction of SIRT6 degradation at 2.5 uM treated for 36 hrs by Western blot analysis; type: cell-based
Target sequence in this assay (Q8N6T7 2-355 limits assumed): as the sequence (Q8N6T7 2-355 limits assumed) above
Target sequence in this assay (Q96SW2 whole entry partner): as the sequence (Q96SW2 whole entry partner) above

[8] = target: T1, Protein cereblon/NAD-dependent protein deacylase sirtuin-6; experiment: PROTAC activity at CRBN/SIRT6 in human SK-HEP1 cells assessed as reduction in density of SIRT6 foci incubated for about 36 hrs by immunofluorescence based analysis; type: cell-based; details: dose <= 5.0 µM
Target sequence in this assay (Q8N6T7 2-355 limits assumed): as the sequence (Q8N6T7 2-355 limits assumed) above
Target sequence in this assay (Q96SW2 whole entry partner): as the sequence (Q96SW2 whole entry partner) above

[9] = target: T1, Protein cereblon/NAD-dependent protein deacylase sirtuin-6; experiment: PROTAC activity at CRBN/SIRT6 in human Huh-7 cells assessed as hook effect at 5 uM incubated for 36 hrs by Western blot analysis; type: cell-based
Target sequence in this assay (Q8N6T7 2-355 limits assumed): as the sequence (Q8N6T7 2-355 limits assumed) above
Target sequence in this assay (Q96SW2 whole entry partner): as the sequence (Q96SW2 whole entry partner) above

[10] = target: T1, Protein cereblon/NAD-dependent protein deacylase sirtuin-6; experiment: PROTAC activity at CRBN/SIRT6 in human SK-HEP1 cells assessed as reduction in fluorescence intensity of SIRT6 labeling incubated for about 36 hrs by immunofluorescence based analysis; type: cell-based
Target sequence in this assay (Q8N6T7 2-355 limits assumed): as the sequence (Q8N6T7 2-355 limits assumed) above
Target sequence in this assay (Q96SW2 whole entry partner): as the sequence (Q96SW2 whole entry partner) above

SK-HEP1 [11] = experiment: Induction of DNA damage in human SK-HEP1 cells assessed as long tail moment incubated for 36 hrs followed by irradiation (10 Gy) for 6 hrs by comet assay; type: functional, cell-based
SK-HEP1 [12] = experiment: Downregulation of FBXO44 expression in human SK-HEP1 cells at 2.5 uM incubated for 36 hrs in presence of MLN4924; type: functional, cell-based
[13] = Toxicity in BALB/c nude mouse xenografted with human SK-HEP1 cells assessed as pathological damage in heart at 10 mg/kg treated for 28 to 30 days under irradiation (3 Gy) by H and E staining based analysis; type: organism-based; details: in vivo, time 28-30 day
SK-HEP1 [14] = experiment: Inhibition of colony formation in human SK-HEP1 cells at 5 to 10 uM incubated for 10 to 14 days with replacement of medium containing compounds on every 3 days by crystal violet staining based analysis; type: functional, cell-based; details: dose 5-10 µM, time 10-14 day
[15] = Toxicity in BALB/c nude mouse xenografted with human SK-HEP1 cells assessed as pathological damage in liver at 10 mg/kg treated for 28 to 30 days under irradiation (3 Gy) by H and E staining based analysis; type: organism-based; details: in vivo, time 28-30 day
[16] = target: T1, Protein cereblon/NAD-dependent protein deacylase sirtuin-6; experiment: PROTAC activity at CRBN/SIRT6 in human SK-HEP1 cells assessed as impairment in gamma-H2AX foci formation by immunofluorescence based analysis; type: cell-based
Target sequence in this assay (Q8N6T7 2-355 limits assumed): as the sequence (Q8N6T7 2-355 limits assumed) above
Target sequence in this assay (Q96SW2 whole entry partner): as the sequence (Q96SW2 whole entry partner) above

SK-HEP1 [17] = experiment: Induction of DNA damage in human SK-HEP1 cells xenografted in BALB/c nude mouse assessed as increase in gamma-H2AX level at 10 mg/kg treated for 28 to 30 days under irradiation (3 Gy); type: functional, organism-based; details: time 28-30 day
[18] = target: T1, Protein cereblon/NAD-dependent protein deacylase sirtuin-6; experiment: PROTAC activity at CRBN/SIRT6 in human Huh-7 cells assessed as induction of SIRT6 degradation incubated for 36 hrs by Western blot analysis; type: cell-based
[19] = target: T1, Protein cereblon/NAD-dependent protein deacylase sirtuin-6; experiment: PROTAC activity at CRBN/SIRT6 in human Hep3B cells assessed as induction of SIRT6 degradation incubated for 24 hrs by Western blot analysis; type: cell-based
SK-HEP1 [20] = experiment: Effect of GBX2 mRNA expression in human SK-HEP1 cells at 2.5 uM incubated for 36 hrs by RNA sequencing analysis; type: functional, cell-based
[21] = target: T1, Protein cereblon/NAD-dependent protein deacylase sirtuin-6; experiment: PROTAC activity at CRBN/SIRT6 in human Huh-7 cells assessed as induction of SIRT6 degradation at 1 uM incubated for 24 hrs by Western blot analysis; type: cell-based
SK-HEP1 [22] = experiment: Induction of cell cycle arrest in human SK-HEP1 cells assessed as accumulation at G2/M phase incubated for 72 hrs by PI staining based flow cytometry; type: functional; details: dose 2.5-10 µM
SK-HEP1 [23] = experiment: Inhibition of colony formation in human SK-HEP1 cells at 2.5 uM incubated for 10 to 14 days with replacement of medium containing compounds on every 3 days in presence of sorafenib by crystal violet staining based analysis; type: functional, cell-based; details: time 10-14 day
SK-HEP1 [24] = experiment: Effect of SIRT7 mRNA expression in human SK-HEP1 cells at 2.5 uM incubated for 36 hrs by RT-qPCR analysis; type: functional, cell-based
[25] = target: T1, Protein cereblon/NAD-dependent protein deacylase sirtuin-6; experiment: PROTAC activity at CRBN/SIRT6 in human SK-HEP1 cells assessed as induction of SIRT6 degradation at 200 nM incubated for 36 hrs by In-Cell ELISA relative to control; type: cell-based
[26] = target: T1, Protein cereblon/NAD-dependent protein deacylase sirtuin-6; experiment: In vivo PROTAC activity of CRBN/SIRT6 in human SK-HEP1 cells xenografted in BALB/c nude mouse assessed as induction of SIRT6 degradation at 10 mg/kg treated for 28 to 30 days; type: functional, organism-based; details: time 28-30 day
SK-HEP1 [27] = experiment: Cytotoxicity against human SK-HEP1 cells incubated for 72 hrs by CCK8 assay; type: functional, cell-based; details: SK-HEP1, 72 h
SK-HEP1 [28] = experiment: Induction of apoptosis in human SK-HEP1 cells at 2.5 uM incubated for 72 hrs in presence of sorafenib by Annexin V-FITC/PI staining based flow cytometry; type: functional, cell-based
[29] = target: T1, Protein cereblon/NAD-dependent protein deacylase sirtuin-6; experiment: PROTAC activity at CRBN/SIRT6 in human SK-HEP1 cells assessed as disruption of CHD4 recruitment to DSB sites at 2.5 uM incubated for 36 hrs followed by CPT treatment for 4 hrs by Western blot analysis; type: cell-based; details: time 40.0 hrs
SK-HEP1 [30] = experiment: Effect of FN1 mRNA expression in human SK-HEP1 cells at 2.5 uM incubated for 36 hrs by RNA sequencing analysis; type: functional, cell-based
[31] = Toxicity in BALB/c nude mouse xenografted with human SK-HEP1 cells assessed as histopathological abnormalities in spleen at 10 mg/kg treated for 28 to 30 days under irradiation (3 Gy) by H and E staining based analysis; type: organism-based; details: in vivo, time 28-30 day
[32] = Toxicity in BALB/c nude mouse xenografted with human SK-HEP1 cells assessed as histopathological abnormalities in lungs at 10 mg/kg treated for 28 to 30 days under irradiation (3 Gy) by H and E staining based analysis; type: organism-based; details: in vivo, time 28-30 day
[33] = target: T1, Protein cereblon/NAD-dependent protein deacylase sirtuin-6; experiment: PROTAC activity at CRBN/SIRT6 in human SK-HEP1 cells assessed as induction of SIRT6 degradation incubated for 36 hrs by Western blot analysis; type: cell-based
Target sequence in this assay (Q8N6T7 whole entry): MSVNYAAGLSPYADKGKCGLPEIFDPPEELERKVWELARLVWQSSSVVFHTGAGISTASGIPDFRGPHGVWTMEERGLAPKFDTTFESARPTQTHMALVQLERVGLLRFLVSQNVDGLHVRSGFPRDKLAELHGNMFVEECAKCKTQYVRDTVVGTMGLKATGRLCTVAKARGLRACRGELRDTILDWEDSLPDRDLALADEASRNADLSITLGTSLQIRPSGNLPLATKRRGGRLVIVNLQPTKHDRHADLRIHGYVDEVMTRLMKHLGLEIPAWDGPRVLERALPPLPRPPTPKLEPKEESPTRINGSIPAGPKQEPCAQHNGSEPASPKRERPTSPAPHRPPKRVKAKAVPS
Target sequence in this assay (Q96SW2 whole entry): as the sequence (Q96SW2 whole entry partner) above

[34] = target: T1, Protein cereblon/NAD-dependent protein deacylase sirtuin-6; experiment: PROTAC activity at CRBN/SIRT6 in human U2OS cells with DNA repair assessed as inhibition of CHD4 loading onto chromatin incubated for 36 hrs by FACS analysis; type: cell-based

Activity [2]: inactive
Activity [8]: Dose-dependent-effect
Activity [9]: Active
Activity [10]: Dose-dependent-effect
Activity [16]: Active
DC50 [18]: 154 nM
Activity [25]: 67.7%
Activity [26]: Active
Activity [29]: Active
DC50 [33]: 45.3 nM
Compound: Nc1cc(N2CCN(CC3CCN(c4cc5c(cc4F)C(=O)N(C4CCC(=O)NC4=O)C5=O)CC3)CC2)ccc1[N+](=O)[O-] (stereo not given)
T/C (SK-HEP1 [1]): 26.1%
IC50 (SK-HEP1 [3]): ~450 nM
Activity (SK-HEP1 [4]): Active
Activity (SK-HEP1 [5]): Active
Activity (SK-HEP1 [6]): Active
Activity [7]: Not active; Confirms That Proteosome Is Necessary For Sirt6 Degradation
Activity (SK-HEP1 [11]): Active
Activity (SK-HEP1 [12]): inactive
Activity [13]: Non-toxic
inhibition (SK-HEP1 [14]): Active
Activity [15]: Non-toxic
Activity (SK-HEP1 [17]): Active
Activity ([18]; dose 0.008-5 µM): Dose-dependent-effect; But Reduced Degradation Efficiency Observed
Activity [19]: Active; Reached A Plateau After 36 Hrs Of Treatment
Activity (SK-HEP1 [20]): Active
Activity [21]: Active; Reached A Plateau After 36 Hrs Of Treatment
Activity (SK-HEP1 [22]): Dose-dependent-effect
inhibition (SK-HEP1 [23]): Active; Exhibited Superior To Compound Alone
Activity (SK-HEP1 [24]): No effect
IC50 (SK-HEP1 [27]): 1510 nM
Activity (SK-HEP1 [28]): Active
Activity (SK-HEP1 [30]): Active
Activity [31]: Non-toxic
Activity [32]: Non-toxic
inhibition [34]: Active; Results In Decrease In Hr And Nhej Efficiencies

From ChEMBL document CHEMBL6120963, “Discovery of Novel PROTAC SIRT6 Degraders with Potent Efficacy against Hepatocellular Carcinoma” (J Med Chem, 2024)
